Like-named read-outs stand apart in the source and are kept apart here.

Format in all cases: cell-based
The test system of one test is PBMCs. As to the kind of experiment: CTG (CellTiter-Glo) viability assay in PBMCs. As to conditions: LPS and nigericin stimulated. Here is the method:
(§1) Human peripheral blood mononuclear cells (PBMCs), consisting of lymphocytes (T, B and NK cells), monocytes and dendritic cells, were freshly isolated from human peripheral blood from healthy donors. Cells were obtained through an IRB approved donor program by iXCells Biotechnologies where all the donors were tested for bacterial and viral infections. Cells were purified from peripheral blood using ficoll gradient centrifugation.
(§2) Fresh or cryopreserved PMBCs were seeded in V-bottom 96-well plate at 0.5-1×10^5 cells per well and incubated overnight at 37° C. with 5% CO2 in RPMI 1640 medium with GlutaMAX supplement, 4.5 g/L D-glucose, 10% Fetal Bovine Serum (FBS), […] Sodium Pyruvate, 1% Penicillin/Streptomycin, 10 mM HEPES and 0.05 mM of β-mercaptoethanol. Freshly isolated or cryopreserved KCs cells were seeded in flat-bottom 96-well plates at 0.6-1.5×10^5 cells/well and incubated overnight at 37° C. 5% CO2 in RPMI 1640 Medium with GlutaMAX supplement, FBS, 1% Penicillin/Streptomycin and 10 mM HEPES. The following day, the cells were primed with 100 ng/mL of lipopolysaccharides (LPS; Sigma Aldrich) in FBS-free RPMI 1640 for 3 h. After the priming step, the media was removed and PBMCs were pre-incubated with serial concentrations of test compounds (0.00017-10 uM) or vehicle (DMSO) for 30 min in FBS-free media prior to addition of the NLRP3 activator. Cells were then stimulated with 10 uM Nigericin (Sigma Aldrich; InvivoGen) for 1.5 h. Plates were centrifuged at 1,500 rpm for 3 minutes to pellet cells and supernatant was transferred into new plates for subsequent experiments.
Viability of compound treated cells was measured using CellTiter-Glo® assay (Promega, Madison, Wis.) that measures the ATP content of cells which is proportional to the number of live cells within a well. This is a counter-screen to establish that the reduction of IL-1β levels in LPS and nigericin stimulated and compound treated cells is not due to cytotoxicity, but rather through the inhibition of the inflammasome pathway. Compounds inhibiting NRLP3 inflammasome activation ultimately increase the viability of LPS and nigericin stimulated cells by blocking NLRP3 mediated pyroptosis that would otherwise lead to cell lysis.

Test [1] addresses T1, NLRP3 inflammasome (Homo sapiens, UniProt Q96P20). The test is described as follows: NLRP3 inflammasome activation assay in PBMCs, IL-1β release (ELISA / HTRF). More on the design: were freshly isolated from human peripheral blood from healthy donors; StemCells Technologies; host or cells: primary human PBMCs, LPS-primed, nigericin-stimulated. As to conditions: LPS primed. Here is the method:
Some of the following assays were used to determine the inhibitory activity of the compounds on the NLRP3 inflammasome using a common inflammasome activation stimuli—nigericin.
as §1, §2
For ELISA assays cells were seeded into 96-well plates. Post study, supernatants were removed and the levels of mature IL-1β, IL18 and TNFα (Quantikine ELISA, R&D systems) were measured in cell conditioned media by ELISA according to manufacturer's instructions.
Human frozen PBMCs were purchased from StemCells Technologies. Cells were rapidly thawed in 37° C. water bath and resuspended in fresh assay media consisting of RPMI 1640 Medium containing 1% sodium pyruvate, 10 mM HEPES, 2.5 g/L glucose and 55 μM 2-Mercaptoethanol. Cell density was adjusted to 8.1×10^5 cells/mL. Cells were primed by adding lipopolysaccharide (Invivogen Ultrapure lipopolysaccharide from E. coli, tlrl-3pelps) at a final concentration of 100 ng/mL in cell suspension. 37 μL of cell suspension with LPS was seeded per well of a 384 well plate and incubated for 3 hours at 37° C. and 5% CO2. After priming, PBMCs were preincubated with serially diluted test compounds with starting concentration of 40 μM followed by 2-fold dilution for a 20-point curve or vehicle (DMSO) for 30 min in assay media at 37° C. and 5% CO2. Cells were then stimulated with 10 μM nigericin (Invivogen, tlrl-nig-5) for 90 min at 37° C. and 5% CO2 to activate NLRP3 dependent inflammasome pathway and IL-1β release in cell culture supernatant. Cells were centrifuged at 1200 RPM for 1 min and 40 μL of supernatant was transferred into fresh plates and stored at −80° C. until IL-1β analysis.
16 μL of supernatant was added to white 384 well HTRF plates, followed by addition of 4 μL of HTRF cocktail in each well. Plates were quickly centrifuged, sealed and incubated overnight at room temperature. Next day, HTRF signal was read on a Pherastar and ratio of 665/620 was calculated based on manufacturer's protocol to obtain concentration of IL-1β in cell culture supernatant.
Background: ELISA stands for enzyme-linked immunosorbent assay.

Test [2] addresses T1, NLRP3 inflammasome. The test is described as follows: THP-1 ASC-GFP speck assay. More on the design: host or cells: THP-1 ASC-GFP cells, PMA-differentiated, LPS-primed, nigericin-stimulated. As to conditions: THP-1 ASC-GFP cells, PMA differentiated, LPS primed, 10 μM nigericin; read-out: THP1 ASC Speck IC50. In outline:
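PMA-differentiated (500 ng/ml, overnight) THP-1 ASC-GFP cells primed with 1 μg/mL LPS for 3 h, preincubated 30 min with compound (top 40 μM, 2-fold, 20 points), then stimulated with 10 μM nigericin for 90 min at 37 °C. After fixation and Hoechst staining, imaging gave the percentage of cells bearing a GFP ASC speck.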

The mark [3] stands for this setting: 10 uM nigericin, read-out: PBMC IL-1 β IC50.
The mark [4] stands for this setting: 10 μM nigericin, read-out: PBMC IL-1β IC50.
Setting [5] is: human PBMCs, read-out: PBMC CTG IC50.

T1 sequence (Q96P20 whole entry): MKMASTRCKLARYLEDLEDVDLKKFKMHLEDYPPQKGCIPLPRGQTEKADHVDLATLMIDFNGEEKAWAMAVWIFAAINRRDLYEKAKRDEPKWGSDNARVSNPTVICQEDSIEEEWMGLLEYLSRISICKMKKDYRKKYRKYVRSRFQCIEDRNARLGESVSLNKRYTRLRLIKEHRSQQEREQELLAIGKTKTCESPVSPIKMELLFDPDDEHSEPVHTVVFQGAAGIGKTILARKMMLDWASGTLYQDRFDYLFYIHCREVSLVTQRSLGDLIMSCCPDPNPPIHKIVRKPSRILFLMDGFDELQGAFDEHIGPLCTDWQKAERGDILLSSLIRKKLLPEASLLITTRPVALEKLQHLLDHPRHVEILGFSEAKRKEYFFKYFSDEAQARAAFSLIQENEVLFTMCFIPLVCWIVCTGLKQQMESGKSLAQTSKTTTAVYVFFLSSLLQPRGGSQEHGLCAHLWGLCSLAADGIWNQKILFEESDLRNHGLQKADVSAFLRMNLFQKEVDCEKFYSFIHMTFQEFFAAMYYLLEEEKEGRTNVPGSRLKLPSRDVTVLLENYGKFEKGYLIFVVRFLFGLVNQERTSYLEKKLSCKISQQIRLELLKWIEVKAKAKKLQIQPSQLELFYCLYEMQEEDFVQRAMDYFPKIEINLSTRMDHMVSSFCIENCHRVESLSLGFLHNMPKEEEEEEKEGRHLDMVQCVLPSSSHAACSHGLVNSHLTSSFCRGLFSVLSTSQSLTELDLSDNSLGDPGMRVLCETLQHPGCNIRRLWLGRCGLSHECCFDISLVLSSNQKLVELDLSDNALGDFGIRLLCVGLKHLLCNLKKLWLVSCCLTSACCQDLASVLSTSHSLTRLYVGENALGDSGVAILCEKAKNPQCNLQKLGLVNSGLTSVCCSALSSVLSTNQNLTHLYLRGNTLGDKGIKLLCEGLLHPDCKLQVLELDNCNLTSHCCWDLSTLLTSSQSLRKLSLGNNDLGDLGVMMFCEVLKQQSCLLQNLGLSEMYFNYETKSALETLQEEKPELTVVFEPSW

As to `CC(C)c1cc(F)cc(C(C)C)c1NC(=O)NS(=N)(=O)c1cnn2c1OCCC2` (stereo not drawn) [drawing 655], the IC50 in the test on PBMCs (Homo sapiens, PBMC) was below 100 nM; on NLRP3 inflammasome [1] (setting [3]), 100 to 1000 nM.

Regarding `CC1(C)COc2c(S(N)(=O)=NC(=O)Nc3c4c(cc5c3CCC5)CCC4)cnn2C1` (stereo not drawn), the IC50 with PBMCs (Homo sapiens, PBMC) is below 100 nM; at NLRP3 inflammasome [1] (setting [3]), below 100 nM.

As for `CO[C@@H]1COc2c(S(N)(=O)=NC(=O)Nc3c4c(cc5c3CCC5)CCC4)cnn2C1` (mixture of isomers) [Example 2, (6S)—N′-((1,2,3,5,6,7-hexahydro-s-indacen-4-yl)carbamoyl)-6-methoxy-6,7-dihydro-5H-pyrazolo[5,1-b][1,3]oxazine-3-sulfonimidamide], the concentration for half-maximal inhibition (IC50) is 100 nM with PBMCs (Homo sapiens, PBMC) and 24 nM on NLRP3 inflammasome [1] (setting [4]).

`CC(C)c1cc(F)cc(C(C)C)c1NC(=O)N=S(N)(=O)c1cnn2c1OCCC2` (racemic) [Example 3, N′-((4-fluoro-2,6-diisopropylphenyl)carbamoyl)-6,7-dihydro-5H-pyrazolo[5,1-b][1,3]oxazine-3-sulfonimidamide]: the IC50 is 176 nM in the test with PBMCs (Homo sapiens, PBMC) and 410 nM at NLRP3 inflammasome [1] (setting [4]).

`Cn1cc(S(N)(=O)=NC(=O)Nc2c3c(cc4c2CCC4)CCC3)cn1` (stereo not drawn): the half-inhibitory concentration (IC50) fell in the range of 100 to 1000 nM in the test with PBMCs (Homo sapiens, PBMC) and 100 to 1000 nM at NLRP3 inflammasome [1] (setting [3]).

Consider `CN=S(=O)(NC(=O)Nc1c2c(cc3c1CCC3)CCC2)c1cnn2c1OCCC2` (stereo not drawn), for which the IC50 with PBMCs (Homo sapiens, PBMC) was above 10000 nM; at NLRP3 inflammasome [1] (setting [3]) it was above 10000 nM.

For the compound `CC(C)c1cc(F)cc(C(C)C)c1NC(=O)NS(=N)(=O)c1cnn2c1OCCC2` (stereo not drawn) [drawing 656], the values for the IC50 in the test on PBMCs (setting [5]) and on NLRP3 inflammasome [1] (setting [3]) were below 100 nM and 100 to 1000 nM, respectively.

For the compound `NS(=O)(=NC(=O)Nc1c2c(c(F)c3c1CCC3)CCC2)c1cnn2c1OCCC2` (stereo not drawn), the IC50 in the test with PBMCs (Homo sapiens, PBMC) is below 100 nM; at NLRP3 inflammasome [1] (setting [3]), below 100 nM.

Take `NS(=O)(=NC(=O)Nc1c2c(c(F)c3c1CCC3)CCC2)c1cnn2c1OC[C@@H](NCCF)C2` (single isomer, unassigned) [Example 47]: the IC50 amounted to 1700 nM at NLRP3 inflammasome [2] and 330 nM at NLRP3 inflammasome [1] (setting [4]).

In the case of `N=S(=O)(NC(=O)Nc1c2c(cc3c1CCC3)CCC2)c1cnn(CC2CC2)c1` (stereo not drawn), the IC50 with PBMCs (Homo sapiens, PBMC) fell in the range of 100 to 1000 nM; at NLRP3 inflammasome [1] (setting [3]) it was 100 to 1000 nM.

Take `COC1CN(C2COc3c(S(N)(=O)=NC(=O)Nc4c5c(cc6c4CCC6)CCC5)cnn3C2)C1` (single isomer, unassigned) [Example 39]: the concentration for half-maximal inhibition (IC50) in the test on PBMCs (setting [5]) amounted to 150 nM; on NLRP3 inflammasome [1] (setting [4]), 19 nM.

Take `CC1CCOc2c(S(N)(=O)=NC(=O)Nc3c4c(cc5c3CCC5)CCC4)cnn2C1` (single isomer, unassigned) [Example 64]: the IC50 at NLRP3 inflammasome [2] and on NLRP3 inflammasome [1] (setting [4]) was above 20000 nM each time.

`N[C@@H]1COc2c([S@@](N)(=O)=NC(=O)Nc3c4c(cc5c3CCC5)CCC4)cnn2C1` [Example 59, (S,6S)-6-amino-N′-((1,2,3,5,6,7-hexahydro-s-indacen-4-yl)carbamoyl)-6,7-dihydro-5H-pyrazolo[5,1-b][1,3]oxazine-3-sulfonimidamide]: the results for the concentration for half-maximal inhibition (IC50) at NLRP3 inflammasome [2] and on NLRP3 inflammasome [1] (setting [4]) were 260 nM and 95 nM, respectively.

For `CC(C)c1cc(F)cc(C(C)C)c1NC(=O)N=S(N)(=O)c1cnn2c1OCCC2` (single isomer, unassigned) [Example 7], the concentration for half-maximal inhibition (IC50) in the test on PBMCs (Homo sapiens, PBMC) turned out to be 3 nM; on NLRP3 inflammasome [1] (setting [4]), 290 nM.

Regarding `COC1CN(C2COc3c(S(N)(=O)=NC(=O)Nc4c5c(c(F)c6c4CCC6)CCC5)cnn3C2)C1` (single isomer, unassigned) [Example 42], the IC50 is 18 nM on NLRP3 inflammasome [2] and 5 nM at NLRP3 inflammasome [1] (setting [4]).

Consider `COc1cc(C(C)C)c(NC(=O)N=S(N)(=O)c2cnn3c2OCC(OC)C3)c(C(C)C)n1` (single isomer, unassigned) [Example 53], for which the IC50 on NLRP3 inflammasome [2] worked out at 1200 nM; on NLRP3 inflammasome [1] (setting [4]) it was 470 nM.

For the compound `CC(C)c1cc(F)cc(C(C)C)c1NC(=O)NS(=N)(=O)c1cnn2c1OCCC2` (stereo not drawn) [drawing 651], the concentration for half-maximal inhibition (IC50) in the test with PBMCs (setting [5]) and at NLRP3 inflammasome [1] (setting [3]) was 100 to 1000 nM throughout.

For `CNC1COc2c(S(N)(=O)=NC(=O)Nc3c(C(C)C)cc(OC)nc3C(C)C)cnn2C1` (single isomer, unassigned) [Example 51], the IC50 was 17000 nM at NLRP3 inflammasome [2] and above 10000 nM at NLRP3 inflammasome [1] (setting [4]).

Turning to `CNC1COc2c(S(N)(=O)=NC(=O)Nc3c(C(C)C)cc(OC)nc3C(C)C)cnn2C1` (single isomer, unassigned) [Example 50], the half-maximal inhibitory concentration (IC50) worked out at 430 nM at NLRP3 inflammasome [2] and 200 nM on NLRP3 inflammasome [1] (setting [4]).

As for `CN(C)[C@@H]1COc2c([S@@](N)(=O)=NC(=O)Nc3c4c(c(F)c5c3CCC5)CCC4)cnn2C1` (single isomer, unassigned) [Example 45], the values for the IC50 on NLRP3 inflammasome [2] and on NLRP3 inflammasome [1] (setting [4]) were 11 nM and 0.7 nM, respectively.

Consider `CNC1COc2c(S(N)(=O)=NC(=O)Nc3c4c(cc5c3CCC5)CCC4)cnn2C1` (single isomer, unassigned) [Example 25], for which the values for the IC50 in the test with PBMCs (setting [5]) and on NLRP3 inflammasome [1] (setting [4]) were 8 nM and 300 nM, respectively.

Turning to `COCCNC1COc2c(S(N)(=O)=NC(=O)Nc3c4c(cc5c3CCC5)CCC4)cnn2C1` (single isomer, unassigned) [Example 54], the IC50 on NLRP3 inflammasome [2] was found to be 360 nM; on NLRP3 inflammasome [1] (setting [4]), 330 nM.

On to `CNS(=O)(=NC(=O)Nc1c2c(cc3c1CCC3)CCC2)c1cnn2c1OCCC2` (racemic) [Example 9, N′-((1,2,3,5,6,7-hexahydro-s-indacen-4-yl)carbamoyl)-N-methyl-6,7-dihydro-5H-pyrazolo[5,1-b][1,3]oxazine-3-sulfonimidamide], for which the IC50 in the test with PBMCs (Homo sapiens, PBMC) was above 10000 nM; on NLRP3 inflammasome [1] (setting [4]), above 10000 nM.

Take `CC1(C)COc2c(S(N)(=O)=NC(=O)Nc3c4c(cc5c3CCC5)CCC4)cnn2C1` (racemic) [Example 6, N′-((1,2,3,5,6,7-hexahydro-s-indacen-4-yl)carbamoyl)-6,6-dimethyl-6,7-dihydro-5H-pyrazolo[5,1-b][1,3]oxazine-3-sulfonimidamide]: the IC50 in the test on PBMCs (Homo sapiens, PBMC) amounted to 3 nM; on NLRP3 inflammasome [1] (setting [4]), 14 nM.

`NS(=O)(=NC(=O)Nc1c2c(c(F)c3c1CCC3)CCC2)c1cnn2c1OCCC2` (racemic) [Example 4, N′-((8-fluoro-1,2,3,5,6,7-hexahydro-s-indacen-4-yl)carbamoyl)-6,7-dihydro-5H-pyrazolo[5,1-b][1,3]oxazine-3-sulfonimidamide]: the IC50 in the test on PBMCs (Homo sapiens, PBMC) was determined as 35 nM; on NLRP3 inflammasome [1] (setting [4]) it was 50 nM.

Turning to `CNCCOC1COc2c(S(N)(=O)=NC(=O)Nc3c4c(cc5c3CCC5)CCC4)cnn2C1` (single isomer, unassigned) [Example 56], the IC50 at NLRP3 inflammasome [2] is above 20000 nM; on NLRP3 inflammasome [1] (setting [4]) it was above 10000 nM.

With `N#CNS(=O)(=NC(=O)Nc1c2c(cc3c1CCC3)CCC2)c1cnn2c1OCCC2` (single isomer, unassigned) [Example 68], the IC50 was 330 nM on NLRP3 inflammasome [2] and 380 nM at NLRP3 inflammasome [1] (setting [4]).

A word on the IC50: it is the midpoint of a concentration-inhibition curve.

Source of the values: patent publication US12234245B2, “Sulfonimidamide compounds as inhibitors of interleukin-1 activity” (Genentech, Inc., priority 2018, dated 2025).
